Experiment [1] can be described thus: DRL-72 test. It is filed as in vivo. To be noted: rats, operant performance. From the text:
This test, carried out according to the protocol of Andrews et al ["Effects of imipramine and mirtazapine on operant performance in rats" - Drug Development Research 32: 58-66 (1994)], gives an indication of potential antidepressant-like activity.

Experiment [2] addresses T1, human 5-HT2C (Homo sapiens, UniProt P28335).
T1 construct: expressed in transfected cells; host or cells: 3T3 cells
T1 sequence (P28335 33-458): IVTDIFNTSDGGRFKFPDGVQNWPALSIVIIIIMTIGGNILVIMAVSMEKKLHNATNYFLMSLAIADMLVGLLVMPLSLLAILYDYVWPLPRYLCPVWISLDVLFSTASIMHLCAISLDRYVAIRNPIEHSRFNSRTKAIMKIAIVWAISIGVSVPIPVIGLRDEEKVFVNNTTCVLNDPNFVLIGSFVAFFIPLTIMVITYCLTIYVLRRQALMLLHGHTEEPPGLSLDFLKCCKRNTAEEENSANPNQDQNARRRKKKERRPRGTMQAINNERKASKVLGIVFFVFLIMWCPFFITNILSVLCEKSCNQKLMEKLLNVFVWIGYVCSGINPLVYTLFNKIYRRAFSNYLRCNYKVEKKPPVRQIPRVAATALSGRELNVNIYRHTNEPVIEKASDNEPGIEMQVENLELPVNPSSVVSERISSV
Put plainly: Binding test, displacement of [3H]-mesulergine, cloned human receptors expressed in 3T3 cells. Conditions: cloned human receptor in 3T3 cells; [3H]-mesulergine displacement; read-out: Binding pKi 5HT2C (converted). The protocol:
(§1) The tests are carried out using cloned human receptors expressed in 3T3 cells according to the protocols described in Stam et al "Genomic organization, coding sequence and functional expression of human 5-HT2 and 5-HT1A receptor genes" - European Journal of Pharmacology - Molecular Pharmacology Section 227: 153-162 (1993) and Stam et al "Genomic organisation and functional expression of the gene encoding the human serotonin 5-HT2C receptor" - European Journal of Pharmacology - Molecular Pharmacology Section 269: 339-348 (1994).

Experiment [3] concerns the target T2, 5HT2C receptors (Rattus norvegicus, UniProt P08909).
T2 construct: from tissue; host or cells: whole animal (rat), in vivo
T2 sequence (P08909 33-460): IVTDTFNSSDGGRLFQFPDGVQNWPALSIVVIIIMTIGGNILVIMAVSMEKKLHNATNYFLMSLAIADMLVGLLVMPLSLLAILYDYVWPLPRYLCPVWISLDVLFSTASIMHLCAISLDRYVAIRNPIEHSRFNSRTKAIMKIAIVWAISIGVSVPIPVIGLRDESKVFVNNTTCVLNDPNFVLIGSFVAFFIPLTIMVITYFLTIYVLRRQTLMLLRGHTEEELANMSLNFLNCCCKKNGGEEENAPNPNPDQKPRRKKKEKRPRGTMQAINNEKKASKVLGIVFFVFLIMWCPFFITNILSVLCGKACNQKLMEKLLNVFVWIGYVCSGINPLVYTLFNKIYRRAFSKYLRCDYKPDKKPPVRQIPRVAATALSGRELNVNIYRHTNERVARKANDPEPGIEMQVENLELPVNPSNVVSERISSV
Put plainly: Penile erection test. In kind it is in vivo. Conditions: rats. From the text:
This test, carried out according to the protocol of Berendsen et al ["In volvement of 5-HT1C receptors in drug-induced penile erections in rats" - Psychopharmacology 101: 57-61(1990)] enables the potential in vivo activity at 5HT2C receptors to be assessed.

Experiment [4] addresses T3, human 5-HT2A receptors (Homo sapiens, UniProt P28223).
T3 construct: expressed in transfected cells; host or cells: 3T3 cells
Put plainly: Binding test, displacement of [3H]-ketanserin, cloned human receptors expressed in 3T3 cells. To be noted: cloned human receptor in 3T3 cells; [3H]-ketanserin displacement; read-out: Binding pKi 5HT2A (converted). The protocol: as §1

The text below walks through data of patent EP0863136B1, “Derivatives of azetidine and pyrrolidine” (Akzo Nobel N.V., priority 1997, dated 1998).

T3 sequence (P28223 whole entry): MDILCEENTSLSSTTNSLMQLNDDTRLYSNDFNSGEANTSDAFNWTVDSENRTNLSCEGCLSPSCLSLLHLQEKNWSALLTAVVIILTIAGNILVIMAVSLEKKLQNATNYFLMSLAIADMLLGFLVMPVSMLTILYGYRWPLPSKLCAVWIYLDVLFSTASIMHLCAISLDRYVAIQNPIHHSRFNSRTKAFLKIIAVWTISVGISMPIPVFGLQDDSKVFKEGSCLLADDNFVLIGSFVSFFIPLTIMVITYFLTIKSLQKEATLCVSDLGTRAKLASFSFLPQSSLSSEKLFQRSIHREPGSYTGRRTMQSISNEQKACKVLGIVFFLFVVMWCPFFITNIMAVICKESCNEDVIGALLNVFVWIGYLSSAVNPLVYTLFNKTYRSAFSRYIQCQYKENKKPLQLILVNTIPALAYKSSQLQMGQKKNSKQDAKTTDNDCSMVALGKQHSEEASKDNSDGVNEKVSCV

In the case of `COc1ccc2c(c1OC1CCNC1)CCC2.Cl` (racemic) [Compound 10b, (rac)-3-[(2,3-Dihydro-5-methoxy-1H-inden-4-yl)oxy] pyrrolidine hydrochloride], in experiment [1], the “Increase in pellets earned in DRL-72 (MED, mg.kg-1)” value (“Increase in pellets earned” for short) was determined as 10 mg/kg. Besides, the Ki in experiment [2] was 25.1 nM. Besides, in experiment [3], the “Erection of the penis (MED, mg.kg-1)” value worked out at 1 mg/kg.

As to `COc1ccc2c(c1OC1CNC1)CCC2.Cl` [Compound 5d, 3-[(2,3-Dihydro-5-methoxy-1H-inden-4-yl)oxy]-azetidine hydrochloride], in experiment [1], the “Increase in pellets earned” value was determined as 10 mg/kg. Besides, the results for the Ki in experiment [4] and in experiment [2] were 398 nM and 31.6 nM, respectively. Further, in experiment [3], the “Erection of the penis (MED, mg.kg-1)” value amounted to 1 mg/kg.

As for `COc1ccc2c(c1O[C@H]1CCNC1)CCC2.Cl` [Compound 9a, (S)-(+)-3-[(2,3-Dihydro-5-methoxy-1H-inden-4-yl)oxy]-pyrrolidine hydrochloride], in experiment [1], the “Increase in pellets earned” value turned out to be 3 mg/kg. In addition, the Ki in experiment [2] was 10 nM. Moreover, in experiment [3], the “Erection of the penis (MED, mg.kg-1)” value stood at 0.46 mg/kg.
